target: T1, telomerase enzyme (Homo sapiens, UniProt O14746); test: Flash Plate-based telomerase activity assay; assay type: biochemical; settings: two hours incubation at 37°, biotinylated oligo primer, radiolabeled probe, streptavidin flash plate; read-out: IC50 (telomerase inhibitory activity)
T1 construct: telomerase enzyme diluted in a buffer
Protocol: The telomerase activity of the compounds has been evaluated using a Flash Plate-based assay.
The assay mixture is constituted of:
telomerase enzyme diluted in a buffer, the composition of which has been selected to maintain the enzyme activity stable along the duration of the assay.
dNTPs, deoxynucleotides 5′-triphosphate.
biotinylated oligo as primer.
increasing concentrations of test compounds/positive control.
After two hours of incubation at 37° degrees the telomeric repeats added by telomerase are evaluated by hybridization in solution with a 3′-radioactive labeled short oligonucleotide probe. The extent of hybridization is then quantitated by transferring the reaction mixture in a streptavidin-coated flash plate, where the binding between biotin and streptavidin occurs. The telomerase activity is proportional to the radioactivity measured and the inhibitory activity of the compounds is evaluated as IC50 using the Sigma Plot fit program.
The IC50 values for the compounds of the present invention were determined according to the above-described method.

T1 sequence (O14746 whole entry): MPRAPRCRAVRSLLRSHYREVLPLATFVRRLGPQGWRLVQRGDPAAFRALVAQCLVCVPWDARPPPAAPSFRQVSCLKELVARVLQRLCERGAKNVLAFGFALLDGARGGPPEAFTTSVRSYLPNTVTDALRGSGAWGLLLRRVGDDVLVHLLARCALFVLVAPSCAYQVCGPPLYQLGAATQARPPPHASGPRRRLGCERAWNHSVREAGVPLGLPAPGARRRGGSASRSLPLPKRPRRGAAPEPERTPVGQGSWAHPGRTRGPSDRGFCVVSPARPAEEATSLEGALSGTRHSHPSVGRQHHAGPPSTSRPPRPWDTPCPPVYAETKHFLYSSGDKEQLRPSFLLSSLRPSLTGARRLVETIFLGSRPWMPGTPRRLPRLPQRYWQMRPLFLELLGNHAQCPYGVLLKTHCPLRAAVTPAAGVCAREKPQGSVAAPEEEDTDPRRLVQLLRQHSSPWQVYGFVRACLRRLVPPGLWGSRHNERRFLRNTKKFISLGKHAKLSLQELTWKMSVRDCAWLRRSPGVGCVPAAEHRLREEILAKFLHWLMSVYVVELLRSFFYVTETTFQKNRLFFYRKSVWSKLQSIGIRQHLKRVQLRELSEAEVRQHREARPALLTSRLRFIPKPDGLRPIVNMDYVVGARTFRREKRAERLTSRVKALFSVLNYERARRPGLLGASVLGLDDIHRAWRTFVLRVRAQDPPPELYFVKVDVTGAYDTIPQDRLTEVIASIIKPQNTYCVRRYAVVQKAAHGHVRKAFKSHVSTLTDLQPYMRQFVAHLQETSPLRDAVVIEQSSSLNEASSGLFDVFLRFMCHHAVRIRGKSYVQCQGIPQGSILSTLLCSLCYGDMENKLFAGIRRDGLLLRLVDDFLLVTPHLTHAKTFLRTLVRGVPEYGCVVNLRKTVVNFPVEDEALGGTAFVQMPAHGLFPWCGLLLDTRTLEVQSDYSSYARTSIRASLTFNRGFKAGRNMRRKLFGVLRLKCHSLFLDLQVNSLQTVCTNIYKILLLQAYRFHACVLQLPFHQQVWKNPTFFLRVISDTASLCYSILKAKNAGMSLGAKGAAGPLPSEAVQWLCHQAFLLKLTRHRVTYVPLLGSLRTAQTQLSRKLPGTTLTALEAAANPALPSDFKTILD

Q: How did the IC50 turn out when COc1ccc(C=C2Oc3c(ccc(O)c3O)C2=O)cc1OC [Compound 3, 2-(3,4-dimethoxybenzylidene)-6,7-dihydroxy-1-benzofuran-3(2H)-one] was run?
A: Its IC50 is 11 µM.

Q: O=C1C(=Cc2ccc(O)c(O)c2)Oc2c1ccc(O)c2O [Compound 1, 2-(3,4-dihydroxybenzylidene)-6,7-dihydroxy-1-benzofuran-3(2H)-one] was tested. Which IC50 did it give?
A: Its IC50 is 0.3 µM.

Q: With O=C1c2ccc(O)c(O)c2OC1Cc1ccc(O)c(O)c1 (stereo not drawn) [Compound 89, 2-(3,4-dihydroxybenzyl)-6,7-dihydroxy-1-benzofuran-3(2H)-one] as the compound, how does the IC50 read?
A: Its IC50 is 7 µM.

Q: Which IC50 does the source give for O=C1C(=Cc2ccc(Cl)c(Cl)c2)Oc2c1ccc(O)c2O [Compound 5, 2-(3,4-dichlorobenzylidene)-6,7-dihydroxy-1-benzofuran-3(2H)-one] here?
A: Its IC50 is 8 µM.

Q: With O=C1C(=Cc2ccc3c(c2)OCO3)Oc2c1ccc(O)c2O [Compound 2, 2-(1,3-benzodioxol-5-ylmethylene)-6,7-dihydroxy-1-benzofuran-3(2H)-one] as the compound, how does the IC50 read?
A: The IC50 was 13 µM.

Q: How did the IC50 turn out when O=C1C(=Cc2ccc(O)cc2O)Oc2c1ccc(O)c2O [Compound 4, 2-(2,4-dihydroxybenzylidene)-6,7-dihydroxy-1-benzofuran-3(2H)-one] was run?
A: The IC50 was 1.5 µM.
